The compounds below were run against Serine/threonine-protein kinase PLK1 (Homo sapiens, UniProt P53350) (assay: potency against Plk1 PBD phosphopeptide binding – biochemical, fluorescence polarization, dose response (AID 877)).
Chain of Serine/threonine-protein kinase PLK1 (P53350 whole entry): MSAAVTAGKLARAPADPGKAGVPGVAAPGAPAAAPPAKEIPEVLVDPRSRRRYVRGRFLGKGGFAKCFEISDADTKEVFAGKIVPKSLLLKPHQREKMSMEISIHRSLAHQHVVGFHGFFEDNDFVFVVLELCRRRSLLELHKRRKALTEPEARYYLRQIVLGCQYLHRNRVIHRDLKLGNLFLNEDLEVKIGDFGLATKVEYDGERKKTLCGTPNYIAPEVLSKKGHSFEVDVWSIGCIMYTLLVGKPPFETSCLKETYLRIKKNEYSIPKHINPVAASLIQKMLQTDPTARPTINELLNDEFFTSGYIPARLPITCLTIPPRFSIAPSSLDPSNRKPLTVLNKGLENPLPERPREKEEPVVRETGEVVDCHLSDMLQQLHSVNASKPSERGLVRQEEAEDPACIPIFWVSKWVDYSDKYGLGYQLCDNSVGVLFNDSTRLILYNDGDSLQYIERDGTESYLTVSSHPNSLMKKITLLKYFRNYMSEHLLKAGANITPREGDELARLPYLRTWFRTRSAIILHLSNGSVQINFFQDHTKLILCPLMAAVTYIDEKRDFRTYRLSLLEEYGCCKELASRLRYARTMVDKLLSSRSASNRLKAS

Structure (SMILES)	IC50
Cc1nn(C(C)C(=O)N2CCCCC2)c(=O)c2c1sc1ccccc12 (stereo unspecified) [2-(2-keto-1-methyl-2-piperidino-ethyl)-4-methyl-benzothiopheno[2,3-d]pyridazin-1-one]	> 50 µM
Cn1nc(-c2ccc(Cl)cc2)nc2c(=O)n(C)c(=O)nc1-2 [3-(4-Chloro-phenyl)-1,6-dimethyl-1H-pyrimido[5,4-e][1,2,4]triazine-5,7-dione]	2.46 µM
Cc1cccc(C)c1NC1=NC(=S)N(c2ccccc2)C12CCOC(C)(C)C2 (stereo unspecified) [4-(2,6-dimethylanilino)-7,7-dimethyl-1-phenyl-8-oxa-1,3-diazaspiro[4.5]dec-3-ene-2-thione]	> 50 µM
O=C(CN1C(=O)c2ccccc2C1=O)N1CCN(c2nnc(-c3ccccc3)c3ccccc23)CC1 [2-[2-keto-2-[4-(4-phenylphthalazin-1-yl)piperazino]ethyl]isoindoline-1,3-quinone]	> 50 µM
O=C(Cc1ccc(Cl)cc1)NCCN1CCCC1 [2-(4-Chloro-phenyl)-N-(2-pyrrolidin-1-yl-ethyl)-acetamide]	> 50 µM
Cc1cccc2[nH]c3c(N4CCN(C(=O)c5ccco5)CC4)ncnc3c12 [SMR000148910]	> 50 µM
Cc1ccc(OCC(=O)Nc2ccc(N3CCOCC3)cc2)cc1 [2-(4-methylphenoxy)-N-(4-morpholin-4-ylphenyl)acetamide]	> 50 µM
O=C1CN(c2ccc(Br)cc2)C(=O)N1CC(=O)N1CCCc2ccccc21 [1-(4-bromophenyl)-3-[2-(3,4-dihydro-1(2H)-quinolinyl)-2-oxoethyl]-2,4-imidazolidinedione]	> 50 µM
CCc1nc2cc(Cl)c(Cl)cc2[nH]1 [MLS000064722]	> 50 µM
O=[N+]([O-])c1ccc(N2CCNCC2)cc1NCC1CCCO1 (stereo unspecified) [(2-nitro-5-piperazino-phenyl)-(tetrahydrofurfuryl)amine]	> 50 µM
Cn1c(=O)c(NCCO)c2c3c(cccc31)C(=O)c1ccccc1-2 [1-(2-Hydroxy-ethylamino)-3-methyl-3H-naphtho[1,2,3-de]quinoline-2,7-dione]	1.81 µM
O=C1Nc2ccc([N+](=O)[O-])cc2C1(O)N1CCCCC1 (stereo unspecified) [3-hydroxy-5-nitro-3-(1-piperidinyl)-1,3-dihydro-2H-indol-2-one]	> 50 µM
Cc1ccc(CNC(=O)c2cc3c(=O)n(C)c4ccccc4c3n2C)cc1 [1,5-dimethyl-N-[(4-methylphenyl)methyl]-4-oxidanylidene-pyrrolo[3,2-c]quinoline-2-carboxamide]	> 50 µM
CC(=O)N(N=C1Sc2ccccc2C1=O)c1cccc(C)c1 [N-(3-methylphenyl)-N-[(3-oxidanylidene-1-benzothiophen-2-ylidene)amino]ethanamide]	32.9 µM
O=c1[nH]cc(COCc2ccccc2)c(=O)[nH]1	> 50 µM
Cc1nc2cccc(C)n2c(=O)c1Cl [3-chloranyl-2,6-dimethyl-pyrido[1,2-a]pyrimidin-4-one]	> 50 µM
O=C(NCCc1ccccc1)/C(=C\c1ccc([N+](=O)[O-])cc1)NC(=O)c1ccccc1 [MLS000575866]	> 50 µM
CCOCCCNC(=O)CCCOc1ccccc1 [MLS000088375]	> 50 µM
CCn1ccc(C(=O)Nc2ccc(N(C)C(C)=O)cc2)n1 [MLS000043435]	> 50 µM
O=C(CNS(=O)(=O)c1ccc(Br)s1)N1CCCC1 [5-bromanyl-N-(2-oxidanylidene-2-pyrrolidin-1-yl-ethyl)thiophene-2-sulfonamide]	> 50 µM
CC(C)OCCCNC(=O)c1ccc(NC(=O)C2CCCO2)cc1 (stereo unspecified) [MLS000086701]	> 50 µM

Structure (SMILES)	IC50
Cc1ccccc1Oc1ncnc2oc(-c3ccccc3)cc12 [4-(2-methylphenoxy)-6-phenyl-furo[2,3-d]pyrimidine]	> 50 µM
CC1(C)CC(=O)C=C(NCc2ccncc2)C1 [5,5-dimethyl-3-(4-pyridylmethylamino)cyclohex-2-en-1-one]	> 50 µM
NC(=O)C1CCN(C2=C(Cl)C(=O)c3ccccc3C2=O)CC1 [SMR000180199]	33.3 µM
CC1CN(C2CC(C)(C)NC(C)(C)C2)CCC1=O (stereo unspecified) [3-methyl-1-(2,2,6,6-tetramethyl-4-piperidinyl)-4-piperidinone]	> 50 µM
CC(C)Sc1nc(N2CCOCC2)c2c(c1C#N)CC(C)(C)N(C)C2 [3-(isopropylthio)-6,6,7-trimethyl-1-morpholino-5,8-dihydro-2,7-naphthyridine-4-carbonitrile]	> 50 µM
CC1Cc2ccccc2N1C(=O)c1ccc2c(c1)nnn2C (stereo unspecified) [(1-methyl-5-benzotriazolyl)-(2-methyl-2,3-dihydroindol-1-yl)methanone]	> 50 µM
C/C(=C\C(=O)Nc1cc(C)on1)c1ccccc1 [(E)-N-(5-methyl-1,2-oxazol-3-yl)-3-phenyl-but-2-enamide]	> 50 µM
CC1CCCC(NC2CCCCNC2=O)C1 (stereo unspecified) [3-[(3-methylcyclohexyl)amino]-2-azepanone]	> 50 µM
O=C(Nc1nc2ccccc2s1)c1cc2c(s1)-c1ccccc1OC2 [MLS000522634]	> 50 µM
O=C1CCN2C=Nc3cccc4ccc1c2c34 [7,8-dihydro-9H-pyrido[1,2,3-cd]perimidin-9-one]	25.1 µM
CC(=O)N(N=C1Sc2ccccc2C1=O)c1ccccc1 [N-[(Z)-(3-ketobenzothiophen-2-ylidene)amino]-N-phenyl-acetamide]	> 50 µM
Cc1ccc(C(=O)Nc2cnc3sc(C)nn3c2=O)cc1 [4-methyl-N-(2-methyl-5-oxidanylidene-[1,3,4]thiadiazolo[3,2-a]pyrimidin-6-yl)benzamide]	> 50 µM
COc1ccc2c(c1OC)C(=O)OC2CC(=O)O (stereo unspecified) [(4,5-dimethoxy-3-oxo-1,3-dihydro-2-benzofuran-1-yl)acetic acid]	> 50 µM
O=C(CC1C(=O)NCCN1C(=S)Nc1ccccc1)Nc1ccc2c(c1)OCCO2 (stereo unspecified) [2-[1-(anilinocarbonothioyl)-3-oxo-2-piperazinyl]-N-(2,3-dihydro-1,4-benzodioxin-6-yl)acetamide]	> 50 µM
CC(C)=CC(=O)NCCc1ccccc1 [MLS000089152]	> 50 µM
O=C(CN1C(=O)COc2ccccc21)NCc1ccc(C(=O)O)cc1 [4-[[2-(3-oxidanylidene-1,4-benzoxazin-4-yl)ethanoylamino]methyl]benzoic acid]	> 50 µM
COc1cc(OC)cc(C(=O)NCCCN2CCOCC2)c1 [3,5-Dimethoxy-N-(3-morpholin-4-yl-propyl)-benzamide]	> 50 µM
COc1ccccc1C1SCCN1S(=O)(=O)c1cccc(C(F)(F)F)c1 (stereo unspecified) [2-(2-Methoxy-phenyl)-3-(3-trifluoromethyl-benzenesulfonyl)-thiazolidine]	> 50 µM
O=C(c1ccc(-n2cnnn2)cc1)N1CCCCC1 [1-piperidinyl-[4-(1-tetrazolyl)phenyl]methanone]	> 50 µM
CCOC(=O)Cc1csc(NC(=O)CSc2nnc(-c3ccc(F)cc3)o2)n1 [(2-{2-[5-(4-Fluoro-phenyl)-[1,3,4]oxadiazol-2-ylsulfanyl]-acetylamino}-thiazol-4-yl)-acetic acid ethyl ester]	> 50 µM
CCOC(=O)c1ccc(NC(=O)c2c(O)[nH]c(=O)[nH]c2=O)cc1	2.28 µM

Structure (SMILES)	IC50
Cc1ccccc1NS(=O)(=O)c1cc(C(=O)NCc2ccco2)ccc1C [MLS000052108]	> 50 µM
Cc1ccc(C(=O)c2c[nH]c(C(=O)NCCCN3CCOCC3)c2)cc1 [4-(4-methylbenzoyl)-N-(3-morpholin-4-ylpropyl)-1H-pyrrole-2-carboxamide]	> 50 µM
COc1ccc(Cn2c(=O)sc3ccccc32)cc1 [3-(4-Methoxy-benzyl)-3H-benzothiazol-2-one]	> 50 µM
CCOC(=O)c1c2c(n(C)c1C)C(=O)C(=O)c1ccc(Br)cc1-2 [8-bromo-2,3-dimethyl-4,5-dioxo-1-benzo[e]indolecarboxylic acid ethyl ester]	10.4 µM
O=C1C(=O)c2ccccc2-c2ccccc21	10.1 µM
COc1ccc(C(C)C)cc1S(=O)(=O)Nc1ccc(Cl)cn1 [MLS000071127]	> 50 µM
CCn1cnc2sc(C(=O)N3CCN(c4ccc(OC)cc4)CC3)c(C)c2c1=O [3-ethyl-6-[4-(4-methoxyphenyl)piperazin-1-yl]carbonyl-5-methyl-thieno[2,3-d]pyrimidin-4-one]	> 50 µM
O=C1C(=C2C(=O)c3ccccc3C2=O)Nc2ccccc21 [MLS000071738]	> 50 µM
Cn1c(-c2cc3ccc(OC(=O)C(C)(C)C)cc3oc2=O)nc2ccccc21 [2,2-Dimethyl-propionic acid 3-(1-methyl-1H-benzoimidazol-2-yl)-2-oxo-2H-chromen-7-yl ester]	> 50 µM
Oc1ccc2ccc3cccc[n+]3c2c1 [9-benzo[c]quinolizin-11-iumol;iodide]	8.73 µM
COC(=O)c1ccccc1NC1=CC(=NS(=O)(=O)c2cccs2)c2ccccc2C1=O [methyl 2-[[(4E)-1-oxidanylidene-4-thiophen-2-ylsulfonylimino-naphthalen-2-yl]amino]benzoate]	> 50 µM
c1ccc(NCc2nnc3n2CCCCC3)cc1 [MLS000057041]	> 50 µM
COC(=O)CNC(=O)C12CC3(C)CC(C)(CC(C)(C3)C1)C2 [2-[[oxo-(3,5,7-trimethyl-1-adamantyl)methyl]amino]acetic acid methyl ester]	> 50 µM
Cc1ccc2cc(C(c3nnnn3C3CCCC3)N3CCN(c4ccccc4)CC3)c(=O)[nH]c2c1 (stereo unspecified) [3-[(1-cyclopentyltetrazol-5-yl)-(4-phenylpiperazin-1-yl)methyl]-7-methyl-1H-quinolin-2-one]	> 50 µM
COc1ccc(Nc2oc(-c3ccccc3Cl)nc2C#N)cc1 [2-(2-chlorophenyl)-5-(4-methoxyanilino)-1,3-oxazole-4-carbonitrile]	> 50 µM
CN1C(=O)N(C)C(=O)C2(Sc3ccccc3C2=O)C1=O [1',3'-dimethylspiro[benzothiophene-2,5'-hexahydropyrimidine]-2',3,4',6'-diquinone]	> 50 µM
CNC(=O)CC(C(=O)O)c1ccc(OCC(C)C)cc1 (stereo unspecified) [2-(4-Isobutoxy-phenyl)-N-methyl-succinamic acid]	> 50 µM
Cc1oc2c(c1C(=O)c1ccccc1)C(=O)C(=O)c1ccccc1-2 [2-methyl-3-(phenylcarbonyl)benzo[g][1]benzofuran-4,5-dione]	43.6 µM
Nc1cc(-c2ccc(Br)cc2)nn1S(=O)(=O)c1cccc2nsnc12 [2-(2,1,3-benzothiadiazol-4-ylsulfonyl)-5-(4-bromophenyl)-3-pyrazolamine]	> 50 µM
